± gives the expanded uncertainty stated by the source.
What was measured:
[1] = refractive index (Na D-line) (dimensionless); settings: 293.15 K; 101.33 kPa; Liquid; Standard Abbe refractometry
[2] = 293.15 K; 101.33 kPa; Liquid; Pycnometric method

SMILES | refractive index [1] | mass density [2] [kg/m3]
CCCCO [butan-1-ol] | 1.3997 ± 0.0005 | 810.3 ± 0.5
CCC(C)O (centres undefined) [butan-2-ol] | 1.3955 ± 0.0005 | 802.6 ± 0.5
CCCCCCO [hexan-1-ol] | 1.4175 ± 0.0005 | 813.8 ± 0.5
CO [methanol] | 1.3291 ± 0.0005 | 791.7 ± 0.5
CCCCCO [pentan-1-ol] | 1.4092 ± 0.0005 | 812.9 ± 0.5
CCCO [propan-1-ol] | 1.3853 ± 0.0005 | 803.8 ± 0.5
CC(C)O [propan-2-ol] | 1.378 ± 0.0005 | 784.9 ± 0.5
